Reference: US20210253575A1, “PYRROLIDINE AMINE COMPOUNDS FOR THE TREATMENT OF AUTOIMMUNE DISEASE” (Hoffmann-La Roche Inc., priority 2018, published 2021)
pIC50: −log10 of the molar value.

Each compound was assayed against T1, human TLR9 (Homo sapiens, UniProt Q9NR96) (assay: HEK293-Blue-hTLR-9 cells assay (SEAP reporter, ODN2006 stimulation)). Conditions: HEK293-Blue-hTLR9 cells, ODN2006 ligand, 20 hrs incubation.
T1 sequence (Q9NR96 26-1032): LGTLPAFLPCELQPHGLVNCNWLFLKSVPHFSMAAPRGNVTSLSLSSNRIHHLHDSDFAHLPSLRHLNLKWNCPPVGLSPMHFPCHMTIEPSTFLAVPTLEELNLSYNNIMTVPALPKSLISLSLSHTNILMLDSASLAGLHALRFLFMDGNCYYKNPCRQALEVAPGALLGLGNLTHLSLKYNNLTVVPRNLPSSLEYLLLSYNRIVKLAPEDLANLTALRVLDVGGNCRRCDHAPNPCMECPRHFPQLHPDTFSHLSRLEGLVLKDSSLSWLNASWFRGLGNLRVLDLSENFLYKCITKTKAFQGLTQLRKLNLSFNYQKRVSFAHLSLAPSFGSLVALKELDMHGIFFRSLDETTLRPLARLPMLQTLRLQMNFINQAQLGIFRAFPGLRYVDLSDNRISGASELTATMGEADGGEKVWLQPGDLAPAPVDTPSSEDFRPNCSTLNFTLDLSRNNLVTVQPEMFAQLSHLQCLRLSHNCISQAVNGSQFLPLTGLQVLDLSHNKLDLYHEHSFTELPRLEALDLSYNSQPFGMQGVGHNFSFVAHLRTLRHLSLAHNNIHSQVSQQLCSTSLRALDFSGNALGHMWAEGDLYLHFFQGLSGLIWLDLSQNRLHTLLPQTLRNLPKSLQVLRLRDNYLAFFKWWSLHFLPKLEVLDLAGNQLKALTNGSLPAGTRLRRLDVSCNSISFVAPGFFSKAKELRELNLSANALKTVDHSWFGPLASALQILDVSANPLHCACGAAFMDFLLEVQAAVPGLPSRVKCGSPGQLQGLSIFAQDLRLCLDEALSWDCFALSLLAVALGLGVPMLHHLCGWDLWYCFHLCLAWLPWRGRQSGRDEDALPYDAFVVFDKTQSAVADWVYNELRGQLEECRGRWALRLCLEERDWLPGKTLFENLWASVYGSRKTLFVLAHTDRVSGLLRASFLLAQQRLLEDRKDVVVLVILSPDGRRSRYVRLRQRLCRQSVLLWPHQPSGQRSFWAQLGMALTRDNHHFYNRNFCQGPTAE
Type: cell-based
Method in brief: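 HEK293-Blue-hTLR9 cells with NF-κB/AP-1-driven SEAP reporter, stimulated with ODN2006 in presence of serially diluted compounds (1% DMSO) for 20 h at 37 °C. Supernatant SEAP measured with QUANTI-Blue after 2 h at 37 °C, absorbance 620–655 nm.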

Row | SMILES | pIC50
1 | N#Cc1ccc(N2CC(CN3CCNCC3)C3(CC3)C2)c2nccnc12 (centres unmarked) [Example 3, 8-[7-(piperazin-1-ylmethyl)-5-azaspiro[2.4]heptan-5-yl]quinoxaline-5-carbonitrile] | 5.73
2 | N#Cc1ccc(N2CC(CN3CC4CCC(C3)C4N)C3(CC3)C2)c2nccnc12 (centres unmarked) [Example 4, 8-[7-[(8-Amino-3-azabicyclo[3.2.1]octan-3-yl)methyl]-5-azaspiro[2.4]heptan-5-yl]quinoxaline-5-carbonitrile] | 6.61
3 | CN(C)[C@@H]1CCN(C[C@H]2CN(c3ccc(C#N)c4nccnc34)C[C@@H]2C(F)(F)F)C1 [Example 83, 8-[(3S,4R)-3-[[(3R)-3-(dimethylamino)pyrrolidin-1-yl]methyl]-4-(trifluoromethyl)pyrrolidin-1-yl]quinoxaline-5-carbonitrile] | 5.70
4 | CN1CCC2(CCN(C[C@H]3CN(c4ccc(C#N)c5nccnc45)C[C@@H]3C(F)(F)F)C2)C1 (stereo partly drawn) [Example 84, 8-[(3S,4R)-3-[(7-methyl-2,7-diazaspiro[4.4]nonan-2-yl)methyl]-4-(trifluoromethyl)pyrrolidin-1-yl]quinoxaline-5-carbonitrile] | 6.39
5 | CC1(CN)CCN(C[C@H]2CN(c3ccc(C#N)c4nccnc34)C[C@@H]2C(F)(F)F)C1 (stereo partly drawn) [Example 85, 8-[(3S,4R)-3-[[3-(aminomethyl)-3-methyl-pyrrolidin-1-yl]methyl]-4-(trifluoromethyl)pyrrolidin-1-yl]quinoxaline-5-carbonitrile] | 6.50
